Measured values published in US20260274894A1, “CYCLIC POLYPEPTIDE COMPOUND AND USE THEREOF” (BIVISION PHARMACEUTICALS, INC., priority 2023, published 2026).
Numbered stars: 1 amine (or outer) side, 2 acyl side, 3 side chain; on linkers, the order of the positions; unused ones are H or OH. Bridge positions count the residues as written; N and C are the ends. Square brackets hold non-standard residues; d marks the D form. Side chains are listed from the residue outwards. Peptide text beside a SMILES is read from it. * marks the point of attachment. ξ: configuration not given here. TBMB(SCH2CH2NH-DOTA) = O=C(O)CN1CCN(CC(=O)O)CCN(CC(=O)NCCSCc2cc(C[*:1])cc(C[*:2])c2)CCN(CC(=O)O)CC1; NH(CH2)2O(CH2)2NHDOTA = O=C(O)CN1CCN(CC(=O)O)CCN(CC(=O)NCCOCCN*)CCN(CC(=O)O)CC1; X4 = O=C(O)CN1CCN(CC(=O)O)CCN(CC(=O)N2CCc3cc(C(=O)*)ccc3C2)CCN(CC(=O)O)CC1; X5 = CCCCCC(=O)N[C@@H](CSCc1cccc(C[*:2])c1)C(=O)N1CCC[C@@H](NC(=O)[*:1])C1; X3 = O=C(O)CN1CCN(CC(=O)O)CCN(CC(=O)NCCOCCOCCOCCN*)CCN(CC(=O)O)CC1; DOTA = O=C(O)CN1CCN(CC(=O)O)CCN(CC(=O)*)CCN(CC(=O)O)CC1; Azetidine3carboxylic = O=C(C1CN([*:1])C1)[*:2]; γGlu = O=C(O)[C@H](CCC(=O)[*:2])N[*:1]; βAsp = O=C(O)[C@H](CC(=O)[*:2])N[*:1]; mXylylene = c1cc(C[*:1])cc(C[*:2])c1; ξγGlu = O=C(O)C(CCC(=O)[*:2])N[*:1]; Ethylenediamine = C(CN[*:2])N[*:1]; Cha = N[C@@H](CC1CCCCC1)C(=O)O; Decanoyl = CCCCCCCCCC(=O)*; Octanoyl = CCCCCCCC(=O)*; Hexanoyl = CCCCCC(=O)*; ξP = O=C(O)C1CCCN1; ξC = NC(CS)C(=O)O

The compounds below were run against T1, FAP protein (Homo sapiens, UniProt Q12884) (assay: Biacore test of compound affinity to FAP protein). Settings: Biacore 8K, SA chip, 15° C., 1:1 binding model.
T1 construct: purchased Sinobiological
T1 sequence (Q12884 1-760): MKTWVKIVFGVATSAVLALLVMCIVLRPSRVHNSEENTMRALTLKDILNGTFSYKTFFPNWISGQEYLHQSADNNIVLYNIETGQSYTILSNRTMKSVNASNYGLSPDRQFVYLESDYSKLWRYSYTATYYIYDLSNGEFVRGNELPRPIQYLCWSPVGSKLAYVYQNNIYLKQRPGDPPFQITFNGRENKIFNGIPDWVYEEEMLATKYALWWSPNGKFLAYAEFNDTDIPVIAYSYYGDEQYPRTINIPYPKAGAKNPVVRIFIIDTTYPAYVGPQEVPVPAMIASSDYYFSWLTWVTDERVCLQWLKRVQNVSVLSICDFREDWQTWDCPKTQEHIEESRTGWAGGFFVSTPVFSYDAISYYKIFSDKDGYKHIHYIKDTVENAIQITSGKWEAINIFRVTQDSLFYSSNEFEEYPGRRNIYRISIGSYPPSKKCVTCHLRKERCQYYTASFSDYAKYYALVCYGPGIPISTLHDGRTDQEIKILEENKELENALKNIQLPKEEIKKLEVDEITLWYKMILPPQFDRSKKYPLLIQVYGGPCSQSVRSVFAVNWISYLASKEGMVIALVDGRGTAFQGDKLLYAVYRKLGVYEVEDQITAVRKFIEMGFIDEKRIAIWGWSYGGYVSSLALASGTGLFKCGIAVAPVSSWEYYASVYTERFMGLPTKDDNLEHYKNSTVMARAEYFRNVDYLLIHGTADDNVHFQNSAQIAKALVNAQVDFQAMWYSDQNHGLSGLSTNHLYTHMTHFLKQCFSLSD
Method: The Biacore 8K (Cytiva) instrument was used to detect ligand binding of the FAP protein (Sinobiological). FAP protein was captured on the SA chip. […] The sensor surface was conditioned by injecting 1M NaCl three consecutive times in 50 mM NaOH. After each ligand injection, additional cleaning was performed using isopropanol in 1M NaCl and 50 mM NaOH (flow path 1 and 2, flow rate of 10 μL/min, injection time of 60 s). […] The analyte was run under the following conditions: analysis temperature of 15° C., analysis step=all set to LMW kinetics; cycle type=single cycle (contact time of 90 s, dissociation time of 1800 s, flow rate of 30 μL/min, flow channels 1 and 2); channel detection=2-1. Data was evaluated using the Biacore Insight Evaluation Software, and the data were fitted to a 1:1 binding model. The Biacore results are shown in Table 2 below: pKD=−Log KD, where KD is the binding affinity of the compound to the FAP protein as measured by Biacore.

pKD (FAP) | Compound
B (B: 7<pKD<8) | CCCCCC(=O)N[C@H]1CSCc2cccc(c2)CSC[C@@H](C(=O)N[C@@H](CCC(=O)NCCNC(=O)CN2CCN(CC(=O)O)CCN(CC(=O)O)CCN(CC(=O)O)CC2)C(=O)O)NC(=O)[C@H](Cc2ccccc2)NC(=O)[C@H](CCC(N)=O)NC(=O)[C@H]([C@@H](C)O)NC(=O)[C@@H]2CCCN2C(=O)C2CN(C2)C1=O (single isomer, unassigned) [^175Lu-JHDC23]

Same assay, conditions: Biacore 8K, SA chip, 15° C., 1:1 binding model; read-out: pKD (FAP) (converted)

Kd | Compound
< 10 nM | CCCCCC(=O)N[C@H]1CSCc2cccc(c2)CSCC(C(=O)N[C@@H](CCC(=O)NCCOCCNC(=O)CN2CCN(CC(=O)O)CCN(CC(=O)O)CCN(CC(=O)O)CC2)C(=O)O)NC(=O)[C@H](CC2CCCCC2)NC(=O)[C@H](CCC(N)=O)NC(=O)[C@H]([C@@H](C)O)NC(=O)C2CCCN2C(=O)C2CN(C2)C1=O (stereo partly drawn) [JHDC05, Hex[Cys(3MeBn)-hhy39-Pro-Thr-Gln-hhy34-Cys]-Glu-(DAPEG2-DOTA)-OH] (Hexanoyl-C[Azetidine3carboxylic][ξP]TQ[Cha][ξC]E(NH(CH2)2O(CH2)2NHDOTA)-OH; linker 1-7 via mXylylene)
< 10 nM | CCCCCC(=O)N[C@H]1CSCc2cccc(c2)CSCC(C(=O)N[C@@H](CCC(=O)NCCOCCNC(=O)CN2CCN(CC(=O)O)CCN(CC(=O)O)CCN(CC(=O)O)CC2)C(=O)O)NC(=O)[C@H](Cc2ccccc2)NC(=O)[C@H](CCC(N)=O)NC(=O)[C@H]([C@@H](C)O)NC(=O)C2CCCN2C(=O)C2CN(C2)C1=O (stereo partly drawn) [JHDC06, Hex[Cys(3MeBn)-hhy39-Pro-Thr-Gln-Phe-Cys]-Glu-(DAPEG2-DOTA)-OH] (Hexanoyl-C[Azetidine3carboxylic][ξP]TQF[ξC]E(NH(CH2)2O(CH2)2NHDOTA)-OH; linker 1-7 via mXylylene)
10 to 100 nM | CCCCCC(=O)N[C@H]1CSCc2cccc(c2)CSCC(C(=O)N[C@@H](CCCCNC(=O)CN2CCN(CC(=O)O)CCN(CC(=O)O)CCN(CC(=O)O)CC2)C(=O)O)NC(=O)[C@H](Cc2ccccc2)NC(=O)[C@H](CCC(N)=O)NC(=O)[C@H]([C@@H](C)O)NC(=O)C2CCCN2C(=O)N[C@@H]2CCCN(C2)C1=O (stereo partly drawn) [JHDC07, Hex[Cys(3MeBn)-hhy44(NH)—CO-Pro-Thr-Gln-Phe-Cys]-Lys-(DOTA)-OH] ([ξP]TQF[ξC]K(DOTA)-OH; linker N-5 via X5)
10 to 100 nM | CCCCCC(=O)N[C@H]1CSCc2cccc(c2)CSCC(C(=O)N[C@@H](CCC(=O)NCCOCCNC(=O)CN2CCN(CC(=O)O)CCN(CC(=O)O)CCN(CC(=O)O)CC2)C(=O)O)NC(=O)[C@H](CC2CCCCC2)NC(=O)CNC(=O)[C@H](CCC(N)=O)NC(=O)[C@H]([C@@H](C)O)NC(=O)C2CCCN2C(=O)C2CN(C2)C1=O (stereo partly drawn) [JHDC09, Hex[Cys(3MeBn)-hhy39-Pro-Thr-Gln-Gly-hhy34-Cys]-Glu-(DAPEG2-DOTA)-OH] (Hexanoyl-C[Azetidine3carboxylic][ξP]TQG[Cha][ξC]E(NH(CH2)2O(CH2)2NHDOTA)-OH; linker 1-8 via mXylylene)
10 to 100 nM | CCCCCC(=O)N[C@H]1CSCc2cccc(c2)CSC[C@@H](C(=O)NCCOCCNC(=O)CN2CCN(CC(=O)O)CCN(CC(=O)O)CCN(CC(=O)O)CC2)NC(=O)[C@H](Cc2ccccc2)NC(=O)[C@H](CCC(N)=O)NC(=O)[C@H]([C@@H](C)O)NC(=O)[C@@H]2CCCN2C(=O)C2CN(C2)C1=O [JHDC10, Hex[Cys(3MeBn)-hhy39-Pro-Thr-Gln-Phe-Cys]-DAPEG2-DOTA] (Hexanoyl-C[Azetidine3carboxylic]PTQFC-{NH(CH2)2O(CH2)2NHDOTA}; linker 1-7 via mXylylene)
10 to 100 nM | CCCCCC(=O)N[C@H]1CCCCn2cc(nn2)CSC[C@@H](C(=O)N[C@@H](CCCCNC(=O)COCCNC(=O)CN2CCN(CC(=O)O)CCN(CC(=O)O)CCN(CC(=O)O)CC2)C(=O)O)NC(=O)[C@H](Cc2ccccc2)NC(=O)[C@H](CCC(N)=O)NC(=O)[C@H]([C@@H](C)O)NC(=O)[C@@H]2CCCN2C(=O)C2CN(C2)C1=O [JHDC12, Hex[2AHA(Triazole)-hhy39-Pro-Thr-Gln-Phe-CSMC]-Lys-(AEAA-DOTA)-OH]
10 to 100 nM | CCCCCC(=O)N[C@H]1CSCc2cccc(c2)CSCC(C(=O)N[C@@H](CCC(=O)NCCOCCOCCOCCNC(=O)CN2CCN(CC(=O)O)CCN(CC(=O)O)CCN(CC(=O)O)CC2)C(=O)O)NC(=O)[C@H](CC2CCCCC2)NC(=O)[C@H](CCC(N)=O)NC(=O)[C@H]([C@@H](C)O)NC(=O)C2CCCN2C(=O)C2CN(C2)C1=O (stereo partly drawn) [JHDC16, Hex[Cys(3MeBn)-hhy39-Pro-Thr-Gln-hhy34-Cys]-Glu-(DAPEG4-DOTA)-OH] (Hexanoyl-C[Azetidine3carboxylic][ξP]TQ[Cha][ξC]E(X3)-OH; linker 1-7 via mXylylene)
10 to 100 nM | CCCCCC(=O)N[C@H]1CSCc2cccc(c2)CSCC(C(=O)N[C@@H](CCC(=O)NCCOCCNC(=O)CN2CCN(CC(=O)O)CCN(CC(=O)O)CCN(CC(=O)O)CC2)C(=O)O)NC(=O)CNC(=O)[C@H](CC2CCCCC2)NC(=O)[C@H](CCC(N)=O)NC(=O)[C@H]([C@@H](C)O)NC(=O)C2CCCN2C(=O)C2CN(C2)C1=O (stereo partly drawn) [JHDC17, Hex[Cys(3MeBn)-hhy39-Pro-Thr-Gln-hhy34-Gly-Cys]-Glu-(DAPEG2-DOTA)-OH] (Hexanoyl-C[Azetidine3carboxylic][ξP]TQ[Cha]G[ξC]E(NH(CH2)2O(CH2)2NHDOTA)-OH; linker 1-8 via mXylylene)
10 to 100 nM | CCCCCCCCCC(=O)N[C@H]1CSCc2cccc(c2)CSC[C@@H](C(=O)N[C@@H](CCC(=O)N[C@@H](CCCNC(=N)N)C(=O)NCC(=O)N[C@@H](CC(=O)NCCNC(=O)CN2CCN(CC(=O)O)CCN(CC(=O)O)CCN(CC(=O)O)CC2)C(=O)O)C(=O)O)NC(=O)[C@H](Cc2ccccc2)NC(=O)[C@H](CCC(N)=O)NC(=O)[C@H]([C@@H](C)O)NC(=O)[C@@H]2CCCN2C(=O)C2CN(C2)C1=O [JHDC18, Dec[Cys(3MeBn)-hhy39-Pro-Thr-Gln-Phe-Cys]-Glu-(Arg-Gly-Asp(EDA-DOTA))-OH] (Decanoyl-C[Azetidine3carboxylic]PTQFC[γGlu]RG[βAsp]-{Ethylenediamine-DOTA}; linker 1-7 via mXylylene)
10 to 100 nM | CCCCCCCCCC(=O)N[C@H]1CSCc2cccc(c2)CSC[C@@H](C(=O)N[C@@H](CCC(=O)N[C@@H](CCCNC(=N)N)C(=O)NCC(=O)N[C@@H](CC(=O)NCCNC(=O)CN2CCN(CC(=O)O)CCN(CC(=O)O)CCN(CC(=O)O)CC2)C(=O)O)C(=O)O)NC(=O)[C@H](CC2CCCCC2)NC(=O)[C@H](CCC(N)=O)NC(=O)[C@H]([C@@H](C)O)NC(=O)[C@@H]2CCCN2C(=O)C2CN(C2)C1=O [JHDC19, Dec[Cys(3MeBn)-hhy39-Pro-Thr-Gln-hhy34-Cys]-Glu-(Arg-Gly-Asp(EDA-DOTA))-OH] (Decanoyl-C[Azetidine3carboxylic]PTQ[Cha]C[γGlu]RG[βAsp]-{Ethylenediamine-DOTA}; linker 1-7 via mXylylene)
10 to 100 nM | CCCCCCCC(=O)N[C@H]1CSCc2cc(CSCCNC(=O)CN3CCN(CC(=O)O)CCN(CC(=O)O)CCN(CC(=O)O)CC3)cc(c2)CSC[C@@H](C(=O)NC(CCC(=O)N[C@@H](CCCNC(=N)N)C(=O)NCC(=O)N[C@@H](CC(N)=O)C(=O)O)C(=O)O)NC(=O)[C@H](CC2CCCCC2)NC(=O)[C@H](CCC(N)=O)NC(=O)[C@H]([C@@H](C)O)NC(=O)C2CCCN2C(=O)C2CN(C2)C1=O (stereo partly drawn) [JHDC21, Oct[Cys(tMeBn-DOTA-AET)-hhy39-Pro-Thr-Gln-hhy34-Cys]-Glu-(Arg-Gly-Asp(NH2))-OH] (Octanoyl-C[Azetidine3carboxylic][ξP]TQ[Cha]C[ξγGlu]RGN-OH; linker 1-7 via TBMB(SCH2CH2NH-DOTA))
10 to 100 nM | CCCCCC(=O)N[C@H]1CSCc2cccc(c2)CSCC(C(=O)N[C@@H](CCC(=O)NCCNC(=O)c2ccc3c(c2)CCN(C(=O)CN2CCN(CC(=O)O)CCN(CC(=O)O)CCN(CC(=O)O)CC2)C3)C(=O)O)NC(=O)[C@H](Cc2ccccc2)NC(=O)[C@H](CCC(N)=O)NC(=O)[C@H]([C@@H](C)O)NC(=O)C2CCCN2C(=O)C2CN(C2)C1=O (stereo partly drawn) [JHDC25, Hex[Cys(3MeBn)-hhy39-Pro-Thr-Gln-Phe-Cys]-Glu-(EDA-hhy02-DOTA)-OH] (Hexanoyl-C[Azetidine3carboxylic][ξP]TQF[ξC]E([Ethylenediamine-X4])-OH; linker 1-7 via mXylylene)
